Converted amounts (≈) assume the structure as drawn.
Key:
[1] = tested on: cryopreserved human intestinal mucosa; assay: Drug-induced enterotoxicity in cryopreserved human intestinal mucosa, viability by cellular ATP contents (Example 6); details: duodenum, jejunum and ileum, three donors, FIGS. 6 and 7
Protocol: A vial of cryopreserved intestinal mucosa was thawed in a 37 C deg. water bath and added to 50 mL of culture medium (Universal Cryopreservation Plating Medium, In Vitro ADMET Laboratories, Columbia, Md.). The recovered mucosa pellet was suspended in a protein free incubation medium (Hepatocyte Enterocyte Incubation Medium, In Vitro ADMET Laboratories, Columbia, Md.). […] The plate was incubated at 37 deg. C. for 24 hrs after which cell viability was determined by the quantification of cellular ATP contents (ATPLite, Perkin Elmers).

[2] = In vitro enterotoxicity assay with cryopreserved intestinal mucosa from duodenum, jejunum and ileum, cellular ATP contents (Example 8); details: human, IC50 (cytotoxicity)
Protocol: (§1) The cryopreserved vials of the isolated intestinal mucosa comprising villi were removed from liquid nitrogen storage and thawed in a 37° C. water bath for approximately 2 min. The contents of each individual vial were decanted into a 50 ml conical tube containing Cryopreserved Enterocyte Recovery Medium, (In Vitro ADMET Laboratories, Columbia, Md.) that was pre-warmed in a 37° C. water bath. The thawed in vitro reagent was recovered by centrifugation at 100×g for 10 min at room temperature. After centrifugation, the supernatant was removed by decanting. A volume of 5 mL of 4° C. Hepatocyte/Enterocyte Incubation Medium, (In Vitro ADMET Laboratories, Columbia, Md.) was added to the intact pellet of enterocytes at the bottom of the conical tube followed by briskly re-pipetting 5 times with a P1000 micropipet to create an even suspension of the intestinal mucosal fragments.
(§2) In vitro cytotoxicity evaluation with cryopreserved intestinal mucosa was performed in 96-well plates. After recovery from cryopreservation as described above, the CHIM pellet was resuspended in 5 mL of Hepatocyte Incubation Medium (IVAL, Columbia, Md.). […] The cryopreserved intestinal mucosa cultures were then incubated in a CO2 cell culture incubator kept at 37° C. in a highly humidified atmosphere of 5% CO2. After an incubation duration of 24 hrs., cell viability was determined based on cellular ATP contents as previously described.
(§3) Data are presented as mean and standard deviation of triplicate incubations derived using the Microsoft Excel 6.0 software. Statistical analysis was performed using student's t-test with the Microsoft Excel 6.0 software, with the probability of p<0.05 to be considered statistically significant. Specific activity (pmol/min/mg protein) of each drug metabolizing enzyme pathway was determined by dividing the total metabolite formed by the incubation time and normalized to protein contents.

[3] = tested on: cryopreserved intestinal mucosa isolated from human duodenum, jejunum, and ileum; assay: as above; details: for IC50: Homo sapiens, read-out: IC50 (viability by cellular ATP contents), range over regions, duodenum, jejunum, and ileum of Donor 1
Protocol: as §1, §2, §3

[4] = tested on: CYP24A1 mRNA; assay: Induction of CYP24A1 transcription in cryopreserved isolated intestinal mucosa (RT-PCR); assay type: cell-based, human; details: 24-hr treatment, dose dependent
Protocol: Gene transcription in the intestinal mucosa was quantified based on reverse transcription-real time PCR (RT-PCR) using the 7500 Fast Real-Time PCR system (Applied Biosystems, Foster City, Calif.). Total RNA was extracted using the mini RNeasy kit (QIAGEN, www.qiagen.com) according to instructions provided by the manufacturer for isolation of total RNA from the intestinal mucosa. At first, reverse transcription (RT) was performed with approximately 200 ng of isolated RNA using the High Capacity cDNA Reverse Transcription Kit (Thermo Fisher Scientific Inc., www.thermofisher.com). Subsequently, quantitative PCR analysis was performed on RT reactions using gene specific primer/probe sets and the Taqman Fast Universal PCR Master Mix (Thermo Fisher). The relative quantity of the target gene was compared with that of the reference transcription of […] (GAPDH) as determined by the […] and as previously described (Fahmi, Kish et al. 2010).
P450 induction in cryopreserved metabolically competent isolated intestinal mucosa was evaluated based on gene transcription. Following a 24-hr treatment period, dose dependent induction of CYP3A4 mRNA by rifampin and 25-hydroxyD3; and, CYP24A1 mRNA by 25-hydroxyD3 were observed. For CYP3A4, the maximal fold of induction was approximately 3-fold for both inducers. Data shown for 25-hydroxyD3 in FIG. 10C.

Row | SMILES | viability in isolated intestinal mucosa (in words) [1] | IC50 at 24 h ([2]; Duodenum mucosa, 24 hrs, cellular ATP contents) | IC50 at 24 h ([2]; Ileum mucosa, 24 hrs, cellular ATP contents) | IC50 at 24 h ([2]; Jejunum mucosa, 24 hrs, cellular ATP contents) | IC50 [3] | cytotoxicity in cryopreserved intestinal mucosa (in words) ([3]; three donors, 24 hrs) | induction of CYP24A1 transcription (mRNA) [4] | induction of CYP24A1 transcription (mRNA) ([4]; listed as 25-hydroxyD3) | induction of CYP24A1 transcription (mRNA) ([4]; listed as vitamin D3) | IC50 at 24 h [2] | cytotoxicity in cryopreserved intestinal mucosa (in words) [3]
1 | COc1ccc2cc([C@H](C)C(=O)O)ccc2c1 [Naproxen, naproxen] | dose-dependent decrease in viability | 350 µg/mL (≈ 1520 µM) | 360 µg/mL (≈ 1560 µM) | 390 µg/mL (≈ 1690 µM) | 350 to 390 µg/mL (≈ 1520 to 1690 µM) | Dose-dependent cytotoxicity |  |  |  |  | 
2 | C=C1/C(=C\C=C2/CCC[C@]3(C)[C@@H]([C@H](C)CCCC(C)(C)O)CC[C@@H]23)C[C@@H](O)C[C@@H]1O [1,25(OH)D3, 1,25-dihydroxyvitamin D3] |  |  |  |  |  |  | approximately 300 fold | Approximately 300 fold | approx. 300 fold |  | 
3 | CC(=O)Nc1ccc(O)cc1 [APAP, acetaminophen] |  |  |  |  | 920 to 1180 µg/mL (≈ 6090 to 7810 µM) |  |  |  |  | 2250 µg/mL (≈ 14900 µM) | Dose-dependent cytotoxicity
